Laboratory results published in patent publication US8044236B2, “Carboxilic acid derivatives” (Institute of Medicinal Molecular Design, Inc., priority 2006, dated 2011).
Structures can show the parent of a compound that is named as a salt.

Target: recombinant human PAI-1 (Homo sapiens, UniProt P05121)
Assay: Test Example 1: human PAI-1 inhibitory activity (tPA fluorogenic substrate, pH7.5 Tris buffer)
Format: biochemical
Parameters: purchased Molecular Innovations, Inc
Details: for Inhibition Rate of Human PAI-1 Activity (%): Tris buffer pH7.5
[1] = pH 7.5, read-out: Inhibition Rate of Human PAI-1 Activity (%)

Sequence of recombinant human PAI-1 (P05121 24-402): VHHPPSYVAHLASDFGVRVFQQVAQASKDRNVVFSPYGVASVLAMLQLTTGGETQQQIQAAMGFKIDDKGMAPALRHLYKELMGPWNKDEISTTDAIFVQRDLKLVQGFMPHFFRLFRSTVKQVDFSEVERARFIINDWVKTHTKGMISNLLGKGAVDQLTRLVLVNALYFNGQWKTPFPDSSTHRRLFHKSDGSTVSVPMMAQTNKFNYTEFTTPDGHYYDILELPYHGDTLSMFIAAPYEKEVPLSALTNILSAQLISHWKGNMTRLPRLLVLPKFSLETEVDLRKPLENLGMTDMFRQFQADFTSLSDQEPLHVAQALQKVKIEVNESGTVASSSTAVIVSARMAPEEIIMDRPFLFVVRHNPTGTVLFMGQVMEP
Experimental: In a 96-well multiplate (black), 1.5 μl of DMSO solution of the present application compound prepared to achieve 80-fold the test concentration (=the final concentration when fluorogenic substrate is added) was diluted with 52.5 μl of pH7.5 Tris buffer. […] Furthermore, 30 μl of 800 IU/ml two-chain tPA (Activity Standard; American diagnostics, inc.) prepared by Tris buffer was added, and the mixed solution was incubated for 15 minutes at room temperature. To this, 30 μl of 400 μM fluorogenic substrate (Pyr-Gly-Arg-MCA; Peptide Institute, Inc.) for tPA prepared by Tris buffer was added and reacted for 30 minutes at room temperature.
<Composition of pH7.5 Tris Buffer)

SMILES | Inhibition Rate of Human PAI-1 Activity (%) (compound 5 μM) | Inhibition Rate of Human PAI-1 Activity (%) (compound 10 μM) | inhibition at 5 µM [1] [%] | inhibition at 10 µM [1] [%] | Inhibition Rate of Human PAI-1 Activity (%) (compound 25 μM)
O=C(O)Cc1cc(-c2ccc(OC(F)(F)F)cc2)ccc1OCc1ccccc1 [Compound 1, [4-benzyloxy-4′-(trifluoromethoxy)biphenyl-3-yl]acetic acid] | 18 | 31 | – | – | –
O=C(O)/C=C/c1cc(-c2ccc(OC(F)(F)F)cc2)ccc1OCc1ccccc1 [Compound 2, (E)-3-[4-benzyloxy-4′-(trifluoromethoxy)biphenyl-3-yl]propenoic acid] | – | – | 35 | 31 | –
O=C(O)CCc1cc(-c2ccc(OC(F)(F)F)cc2)ccc1OCc1ccccc1 [Compound 3, 3-[4-benzyloxy-4′-(trifluoromethoxy)biphenyl-3-yl]propanoic acid] | 35 | 68 | – | – | –
CC(C)(C)c1ccc(COc2ccc(-c3ccc(OC(F)(F)F)cc3)cc2/C=C/C(=O)O)cc1 [Compound 4, (E)-3-{4-[4-(tert-butyl)benzyloxy]-4′-(trifluoromethoxy)biphenyl-3-yl}propenoic acid] | 84 | 78 | – | – | –
CC(C)(C)c1ccc(COc2ccc(-c3ccc(OC(F)(F)F)cc3)cc2NC(=O)C(=O)O)cc1 [Compound 6, N-{4-[4-(tert-butyl)benzyloxy]-4′-(trifluoromethoxy)biphenyl-3-yl}oxamic acid sodium salt] | 83 | 94 | – | – | –
CC(C)(C)c1ccc(Oc2ccc(-c3ccc(OC(F)(F)F)cc3)cc2/C=C\C(=O)O)cc1 [Compound 12, (Z)-3-{4-[4-(tert-butyl)phenoxy]-4′-(trifluoromethoxy)biphenyl-3-yl}propenoic acid] | 92 | 94 | – | – | –
O=C(O)CCc1cc(-c2ccc(OC(F)(F)F)cc2)ccc1Oc1ccc(C(=O)O)cc1 [Compound 15, 3-[4-(4-carboxyphenoxy)-4′-(trifluoromethoxy)biphenyl-3-yl]propanoic acid] | – | 3 | – | – | –
CN(C(=O)C(=O)O)c1cc(-c2ccc(OC(F)(F)F)cc2)ccc1OCc1ccc(C(C)(C)C)cc1 [Compound 18, N-{4-[4-(tert-butyl)benzyloxy]-4′-(trifluoromethoxy)biphenyl-3-yl}-N-methyloxamic acid] | 37 | 67 | – | – | 97
O=C(O)CCc1cc(-c2ccc(OC(F)(F)F)cc2)ccc1OCc1ccc(C(F)(F)F)cc1 [Compound 26, 3-{4′-(trifluoromethoxy)-4-[4-(trifluoromethyl)benzyloxy]biphenyl-3-yl}propanoic acid] | – | 13 | – | – | 80
COc1ccccc1COc1ccc(-c2ccc(OC(F)(F)F)cc2)cc1CCC(=O)O [Compound 28, 3-[4-(2-methoxybenzyloxy)-4′-(trifluoromethoxy)biphenyl-3-yl]propanoic acid] | – | 7 | – | – | 47
O=C(O)/C=C\c1cc(-c2ccc(OC(F)(F)F)cc2)ccc1OCc1ccccc1 [Compound 29, (Z)-3-[4-benzyloxy-4′-(trifluoromethoxy)biphenyl-3-yl]propenoic acid] | – | 11 | – | – | 64
CC(C)(C)c1ccc(COc2ccc(-c3ccc(OC(F)(F)F)cc3)cc2/C=C\C(=O)O)cc1 [Compound 30, (Z)-3-{4-[4-(tert-butyl)benzyloxy]-4′-(trifluoromethoxy)biphenyl-3-yl}propenoic acid] | 96 | 97 | – | – | 93
CC(C)(C)c1ccc(COc2ccc(-c3cccc(C(=O)O)c3)cc2CCC(=O)O)cc1 [Compound 31, 3-{4-[4-(tert-butyl)benzyloxy]-3′-carboxybiphenyl-3-yl}propanoic acid] | – | 9 | – | – | 25
O=C(O)CCc1cc(-c2ccc(OC(F)(F)F)cc2)ccc1OCc1ccc(Cl)cc1Cl [Compound 32, 3-[4-(2,4-dichlorobenzyloxy)-4′-(trifluoromethoxy)biphenyl-3-yl]propanoic acid] | 5 | 29 | – | – | 92
CCCCc1ccc(COc2ccc(-c3ccc(OC(F)(F)F)cc3)cc2CCC(=O)O)cc1 [Compound 35, 3-[4-(4-butylbenzyloxy)-4′-(trifluoromethoxy)biphenyl-3-yl]propanoic acid] | – | – | – | – | >99
CC(C)(C)c1ccc(COc2ccc(-c3ccccc3)cc2/C=C/C(=O)O)cc1 [Compound 36, (E)-3-{4-[4-(tert-butyl)benzyloxy]biphenyl-3-yl}propenoic acid] | 21 | 49 | – | – | 89

SMILES | Inhibition Rate of Human PAI-1 Activity (%) (compound 5 μM) | Inhibition Rate of Human PAI-1 Activity (%) (compound 10 μM) | inhibition at 5 µM [1] [%] | inhibition at 10 µM [1] [%] | Inhibition Rate of Human PAI-1 Activity (%) (compound 25 μM)
CC(C)(C)c1ccc(COc2ccc(-c3ccccc3)cc2CCC(=O)O)cc1 [Compound 37, 3-{4-[4-(tert-butyl)benzyloxy]biphenyl-3-yl}propanoic acid] | 22 | 47 | – | – | 97
CC(C)(C)c1ccc(COc2ccc(-c3ccc(F)cc3)cc2/C=C/C(=O)O)cc1 [Compound 38, (E)-3-{4-[4-(tert-butyl)benzyloxy]-4′-fluorobiphenyl-3-yl}propenoic acid] | 23 | 53 | – | – | 96
CC(C)(C)c1ccc(COc2ccc(-c3ccc(F)cc3)cc2CCC(=O)O)cc1 [Compound 39, 3-{4-[4-(tert-butyl)benzyloxy]-4′-fluorobiphenyl-3-yl}propanoic acid] | 24 | 53 | – | – | 99
CC(C)(C)c1ccc(COc2ccc(-c3ccc(C(F)(F)F)cc3)cc2/C=C/C(=O)O)cc1 [Compound 40, (E)-3-{4-[4-(tert-butyl)benzyloxy]-4′-(trifluoromethyl)biphenyl-3-yl}propenoic acid] | 28 | 57 | – | – | 95
CC(C)(C)c1ccc(COc2ccc(-c3ccc(C(F)(F)F)cc3)cc2CCC(=O)O)cc1 [Compound 41, 3-{4-[4-(tert-butyl)benzyloxy]-4′-(trifluoromethyl)biphenyl-3-yl}propanoic acid] | 23 | 60 | – | – | 99
COc1ccc(-c2ccc(OCc3ccc(C(C)(C)C)cc3)c(/C=C/C(=O)O)c2)cc1 [Compound 42, (E)-3-{4-[4-(tert-butyl)benzyloxy]-4′-methoxybiphenyl-3-yl}propenoic acid] | 23 | 47 | – | – | 84
COc1ccc(-c2ccc(OCc3ccc(C(C)(C)C)cc3)c(CCC(=O)O)c2)cc1 [Compound 43, 3-{4-[4-(tert-butyl)benzyloxy]-4′-methoxybiphenyl-3-yl}propanoic acid] | 14 | 34 | – | – | 93
CC(C)(C)c1ccc(COc2ccc(-c3ccc(C(C)(C)C)cc3)cc2/C=C/C(=O)O)cc1 [Compound 44, (E)-3-{4′-(tert-butyl)-4-[4-(tert-butyl)benzyloxy]biphenyl-3-yl}propenoic acid] | 25 | 56 | – | – | 94
CC(C)(C)c1ccc(COc2ccc(-c3ccc(C(C)(C)C)cc3)cc2CCC(=O)O)cc1 [Compound 45, 3-{4′-(tert-butyl)-4-[4-(tert-butyl)benzyloxy]biphenyl-3-yl}propanoic acid] | 22 | 66 | – | – | >99
CCCCc1ccc(-c2ccc(OCc3ccc(C(C)(C)C)cc3)c(CCC(=O)O)c2)cc1 [Compound 48, 3-{4′-butyl-4-[4-(tert-butyl)benzyloxy]biphenyl-3-yl}propanoic acid] | 29 | 66 | – | – | 94
CSc1ccc(-c2ccc(OCc3ccc(C(C)(C)C)cc3)c(/C=C/C(=O)O)c2)cc1 [Compound 49, (E)-3-{4-[4-(tert-butyl)benzyloxy]-4′-(methylsulfanyl)biphenyl-3-yl}propenoic acid] | 16 | 25 | – | – | 21
CC(C)(C)c1ccc(-c2ccc(OCc3ccccc3)c(/C=C/C(=O)O)c2)cc1 [Compound 52, (E)-3-[4-benzyloxy-4′-(tert-butyl)biphenyl-3-yl]propenoic acid] | 22 | 47 | – | – | 91
CC(C)(C)c1ccc(-c2ccc(OCc3ccccc3)c(CCC(=O)O)c2)cc1 [Compound 53, 3-[4-benzyloxy-4′-(tert-butyl)biphenyl-3-yl]propanoic acid] | 20 | 50 | – | – | 93
CC(C)(C)c1ccc(-c2ccc(OCc3ccc(OC(F)(F)F)cc3)c(/C=C/C(=O)O)c2)cc1 [Compound 56, (E)-3-{4′-(tert-butyl)-4-[4-(trifluoromethoxy)benzyloxy]biphenyl-3-yl}propenoic acid] | 32 | 69 | – | – | 94
CC(C)(C)c1ccc(-c2ccc(OCc3ccc(OC(F)(F)F)cc3)c(CCC(=O)O)c2)cc1 [Compound 57, 3-{4′-(tert-butyl)-4-[4-(trifluoromethoxy)benzyloxy]biphenyl-3-yl}propanoic acid] | 28 | 64 | – | – | 94
